Assay results published in patent US20190177440A1, “COMPOUND OR SALT THEREOF, ANTI-INFLAMMATORY AGENT, ANTI-CANCER AGENT AGAINST LUNG CANCER, METHOD OF PRODUCING COMPOUND OR SALTS THEREOF, METHOD OF TREATING INFLAMMATORY DISEASES AND METHOD OF TREATING LUNG CANCER” (TFK CO., LTD., priority 2016, published 2019).

What was measured:
[1] = system: TNF-α; test: TNF-α production in RAW264.7 mouse macrophage cells (Example 6); type: cell-based; conditions: final 0.01, 0.1 and 1 ng/mL, no LPSp, FIG. 6
Description: In the same manner as “(1) Preparation of test solution” in Example 3, a solution having a concentration of the purified product of 20,000 ng/mL was prepared, and the solution was serially diluted with a culture solution having the following composition, thereby obtaining a total of three test solutions having a concentration of 2 ng/mL, 0.2 ng/mL, and 0.02 ng/mL. Since the three test solutions are diluted twice when added to the cells, the final concentrations of the purified products are 1 ng/mL, 0.1 ng/mL, and 0.01 ng/mL, respectively.
The culture medium was added to mouse macrophage cells (RAW264.7, ATCC) to prepare solutions at concentrations of 4×10^5 cells/mL. The solutions were seeded in 96-well flat-bottomed plates in 100 μL portions, i.e., 4×10^4 cells/100 μL/well. After seeding, the cells were incubated at 37° C. in 5% CO2 for 2 hours until they adhered to the bottoms of the wells and extended. Next, 100 μL of the test solution was added to each well. After adding the test solution, the cells were incubated at 37° C. in a 5% CO2 for 24 hours. After the incubation, the culture supernatant of the wells was removed, 150 μl of the above-mentioned culture solution was newly added (hereinafter, this step is referred to as a “culture solution adding step”), and the wells were incubated at 37° C. in a 5% CO2 for 24 hours.
After incubation, 50 μl of culture supernatant from each well was collected, transferred to each well of new 96-well flat-bottom plates, and absorbance was measured using mouse TNF a assay kit (manufactured by Biolegend) and converted to TNF-α concentrations.

[2] = system: NF-κB; test: Nuclear NF-κB level in RAW264.7 mouse macrophage cells (Example 4); type: cell-based; conditions: final 1 and 100 ng/mL, 24 hours pre-treatment, no LPSp, FIG. 4
Description: In the same manner as “(1) Preparation of test solution” in Example 3, a solution having a concentration of the purified product of 20,000 ng/mL was prepared, and the solution was serially diluted with a culture solution having the following composition, thereby obtaining two test solutions having 100 ng/mL and 10,000 ng/mL. Since the two test solutions are diluted 100-fold when added to the cells, the final concentrations of the purified product are 1 ng/mL and 100 ng/mL, respectively.
The culture medium was added to mouse macrophage cells (RAW264.7, ATCC) to prepare solutions at concentrations of 1.067×10^6 cells/mL. The solutions were seeded in 6 well plates in 3 mL portions, i.e., 3.2×10^6 cells/3 mL/well. After seeding, the test solution was incubated at 37° C. in a 5% CO2 for 2 hours, and 30 μL of the test solution was added to each well. After adding the test solution, the test solution was incubated at 37° C. in a 5% CO2 for 24 hours. The culture supernatant of each of the wells was then collected in a 15 mL tube. Then, 1 mL of the fresh culture solution was added to each of the wells, and after spreading over the entire well, the operation of collecting the culture solution into the 15 mL tube was repeated twice. Thereafter, the culture solution collected in the 15 mL tube was centrifuged at 1,000 rpm for 3 minutes, the supernatant was removed, and 3 mL of a new culture solution at 37° C. was added to suspend the culture solution, and centrifuged again under the same conditions. After centrifugation, the supernatant was removed, and 2 mL of the above-mentioned culture solution at 37° C. was added to the precipitate and suspended. Then, 2 mL of the suspension was added to each well to which 1 mL of a new culture medium had been added in advance. Thereafter, 30 μL of a new culture medium was added (hereinafter, this step is referred to as a “culture medium addition step”). After incubation at 37° C. in a 5% CO2 for 30 minutes, the culture supernatants of the wells were collected in 15-mL tubes, centrifuged at 1,000 rpm for 3 minutes, and the supernatants were removed by an aspirator. In addition, to the wells of the 6-well plate from which the culture supernatant was removed, 3 mL of cooled PBS (Phosphate buffered saline)/Phosphatase Inhibitors solution was added, the cells were removed by pipetting, and the cell suspension was added to the 15-mL tubes. The 15 mL tube was centrifuged at 1,000 rpm for 3 minutes, the supernatant was removed by an aspirator, and 0.5 mL of the cooled PB S/Phosphatase Inhibitors solution was added to the 15 mL tube and suspended to prepare a cell suspension. […]
(§1) The amount of NF-κB in the nucleoprotein was confirmed by measuring the absorbance using the Trans AM NF KB p65 kit (manufactured by Active Motif).

[3] = system: NF-κB; test: Nuclear NF-κB level in RAW264.7 cells stimulated with LPSp (Example 5); type: cell-based, mouse; conditions: final 1, 100 and 10,000 ng/mL, then LPSp 100 ng/mL, FIG. 5
Description: The culture medium was added to mouse macrophage cells (RAW264.7, ATCC) to prepare solutions at concentrations of 1.067×10^6 cells/mL. The solutions were seeded in 6 well plates in 3 mL portions, i.e., 3.2×10^6 cells/3 mL/well. After seeding, the test solution was incubated at 37° C. in a 5% CO2 for 2 hours, and 30 μL of the test solution was added to each well. After adding the test solution, the test solution was incubated at 37° C. in a 5% CO2 for 24 hours. The culture supernatant of each of the wells was then collected in a 15 mL tube. Then, 1 mL of the fresh culture solution was added to each of the wells, and after spreading over the entire well, the operation of collecting the culture solution into the 15 mL tube was repeated twice. Thereafter, the culture solution collected in the 15 mL tube was centrifuged at 1,000 rpm for 3 minutes, the supernatant was removed, and 3 mL of a new culture solution at 37° C. was added to suspend the culture solution, and centrifuged again under the same conditions. After centrifugation, the supernatant was removed, and 2 mL of the above-mentioned culture solution at 37° C. was added to the precipitate and suspended. Then, 2 mL of the suspension was added to each well to which 1 mL of a new culture medium had been added in advance. Thereafter, 30 μL of a new culture medium was added (hereinafter, this step is referred to as a “culture medium addition step”). After incubation at 37° C. in a 5% CO2 for 30 minutes, the culture supernatants of the wells were collected in 15-mL tubes, centrifuged at 1,000 rpm for 3 minutes, and the supernatants were removed by an aspirator. In addition, to the wells of the 6-well plate from which the culture supernatant was removed, 3 mL of cooled PBS (Phosphate buffered saline)/Phosphatase Inhibitors solution was added, the cells were removed by pipetting, and the cell suspension was added to the 15-mL tubes. The 15 mL tube was centrifuged at 1,000 rpm for 3 minutes, the supernatant was removed by an aspirator, and 0.5 mL of the cooled PB S/Phosphatase Inhibitors solution was added to the 15 mL tube and suspended to prepare a cell suspension. Nucleoproteins were extracted from the cell suspensions using Nuclear Extract kit (manufactured by Active Motif).
as §1
In this example, an experiment was conducted in the same manner as in Example 4 except for the following two points, and the amount of NF-κB in the nucleoprotein was confirmed by measuring the absorbance. That is, in this example, three types of test solutions were used as the test solution, in which the concentration of the purified product was 100 ng/mL, 10,000 ng/mL, and 1,000,000 ng/mL. […]

CCCCCC/C=C/CCCCCC(=O)OC(CCCCCCCCCCC)CC(=O)NC1C(OCC2OC(OP(=O)(O)O)C(NC(=O)CC(=O)CCCCCCCCCCC)C(OC(=O)CC(O)CCCCCCC)C2O)OC(COC2(C(=O)O)CC(OC3(C(=O)O)CC(OC4OC(C(=O)O)C(OC5OC(CO)C(O)C(O)C5O)C(O)C4O)C(O)C(C(O)CO)O3)C(OC3OC(COP(=O)(O)O)C(OC4OC(CO)C(O)C(O)C4O)C(O)C3O)C(C(O)CO)O2)C(OP(=O)(O)O)C1OC(=O)CC(O)CCCCCCC (stereo not drawn) [Formula (A1)]
Equivalent results were obtained: TNF-α concentration in culture supernatant [1] | amount of NF-κB in the nucleoprotein (absorbance) [2] | amount of NF-κB in the nucleoprotein (absorbance) [3]

CCCCCC/C=C/CCCCCC(=O)OC(CCCCCCCCCCC)CC(=O)NC1C(OCC2OC(OP(=O)(O)O)C(NC(=O)CC(=O)CCCCCCCCCCC)C(OC(=O)CC(O)CCCCCCC)C2O)OC(COC2(C(=O)O)CC(OC3(C(=O)O)CC(O)C(OC4OC(C(=O)O)C(OC5OC(CO)C(O)C(O)C5O)C(O)C4O)C(C(O)CO)O3)C(OC3OC(CO)C(O)C(O)C3O)C(C(O)CO)O2)C(OP(=O)(O)O)C1OC(=O)CC(O)CCCCCCC (stereo not drawn) [Formula (B2)]
Equivalent results were obtained: TNF-α concentration in culture supernatant [1] | amount of NF-κB in the nucleoprotein (absorbance) [2] | amount of NF-κB in the nucleoprotein (absorbance) [3]

CCCCCC/C=C/CCCCCC(=O)OC(CCCCCCCCCCC)CC(=O)NC1C(OCC2OC(OP(=O)(O)O)C(NC(=O)CC(=O)CCCCCCCCCCC)C(OC(=O)CC(O)CCCCCCC)C2O)OC(COC2(C(=O)O)CC(OC3(C(=O)O)CC(OC4OC(C(=O)O)C(OC5OC(CO)C(O)C(O)C5O)C(O)C4O)C(O)C(C(O)CO)O3)C(OC3OC(CO)C(O)C(O)C3O)C(C(O)CO)O2)C(OP(=O)(O)O)C1OC(=O)CC(O)CCCCCCC (stereo not drawn) [Formula (A2)]
Equivalent results were obtained: TNF-α concentration in culture supernatant [1] | amount of NF-κB in the nucleoprotein (absorbance) [2] | amount of NF-κB in the nucleoprotein (absorbance) [3]

CCCCCC/C=C/CCCCCC(=O)OC(CCCCCCCCCCC)CC(=O)NC1C(OCC2OC(OP(=O)(O)O)C(NC(=O)CC(=O)CCCCCCCCCCC)C(OC(=O)CC(O)CCCCCCC)C2O)OC(COC2(C(=O)O)CC(OC3(C(=O)O)CC(O)C(OC4OC(C(=O)O)C(OC5OC(CO)C(O)C(O)C5O)C(O)C4O)C(C(O)CO)O3)C(OC3OC(COP(=O)(O)O)C(OC4OC(CO)C(O)C(O)C4O)C(O)C3O)C(C(O)CO)O2)C(OP(=O)(O)O)C1OC(=O)CC(O)CCCCCCC (stereo not drawn) [Formula (B1)]
Equivalent results were obtained: TNF-α concentration in culture supernatant [1] | amount of NF-κB in the nucleoprotein (absorbance) [2] | amount of NF-κB in the nucleoprotein (absorbance) [3]
